According to PubChem BioAssay AID1552 (Sanford-Burnham Center for Chemical Genomics, 2009):
Calls of active or inactive are those of the source. No rule for the calls is given here.

The molecules below were run against Ubiquitin-conjugating enzyme E2 N (Homo sapiens) (UniProt P61088) (assay: NMR detection of UBE2N ligand binding – biophysical, purified protein (AID 1552)). Settings: NMR binding to purified UBE2N.
Chain of Ubiquitin-conjugating enzyme E2 N (Homo sapiens) (P61088 whole entry, looked up): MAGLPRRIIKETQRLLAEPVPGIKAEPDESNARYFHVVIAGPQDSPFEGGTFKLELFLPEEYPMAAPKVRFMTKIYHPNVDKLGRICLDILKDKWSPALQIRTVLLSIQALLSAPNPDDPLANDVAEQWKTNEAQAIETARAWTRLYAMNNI
For `CN1CCN(C(=O)Nc2cccc3ccccc23)CC1`, the Kd was > 4 mM (inactive).
For `Cc1ccccc1NC(=O)c1ccccc1`, the Kd was > 4 mM (inactive).
`C/C=C(/C)C(=O)O[C@@H]1Cc2c(ccc3ccc(=O)oc23)OC1(C)C` was tested, and the Kd was > 4 mM (inactive).
For `NC(=O)C1CCN(Cc2ccccc2)CC1`, the Kd was > 4 mM (inactive).
In the case of `COc1cc(-c2coc3cc(O[C@@H]4O[C@H](CO)[C@@H](O)[C@H](O)[C@H]4O)c(OC)c(O)c3c2=O)cc(O)c1OC`, the Kd is reported as > 4 mM (inactive).
`COc1ccc2[nH]c(O)c(NC(C)=O)c2c1` was tested, and the Kd was > 4 mM (inactive).
In the case of `Clc1ncnc2[nH]ncc12`, the Kd is reported as > 4 mM (inactive).
With `O=C1CCCCCN1CO` the Kd was > 4 mM (inactive).
For `O=C(NCc1ccncc1)c1cccc(F)c1`, the Kd was > 4 mM (inactive).
In the case of `S=c1[nH]nc(-c2cccnc2)n1C1CCCCC1`, the Kd is reported as > 4 mM (inactive).
With `C[C@@H]1CC[C@]2(C(=O)O)CC[C@]3(C)C(=CCC4[C@@]5(C)CC[C@H](O)C(C)(C)C5CC[C@]43C)C2[C@H]1C` (some centres not stated) the Kd was > 4 mM (inactive).
For `O=c1[nH]cc(NCc2ccco2)c(=O)[nH]1`, the Kd was > 4 mM (inactive).
`COc1ccc(Cl)cc1NC(=O)c1ccco1` was tested, and the Kd was > 4 mM (inactive).
For `NC(=O)CS(=O)(=O)c1ccc2ccccc2c1`, the Kd was > 4 mM (inactive).
For `CCOc1ccc(N2C(=O)CCC2=O)cc1`, the Kd was > 4 mM (inactive).
For `CC(C)NC(=S)N1CCN(S(C)(=O)=O)CC1`, the Kd was > 4 mM (inactive).
With `CCc1ccc(/C=N/n2cnnc2)cc1` the Kd was > 4 mM (inactive).
In the case of `c1ccc(-c2nsc(N3CCCNCC3)n2)cc1`, the Kd is reported as > 4 mM (inactive).
For `CC1=CCCC2C1(C)CCC(C)C2(C)CC/C(C)=C/C[n+]1cn(C)c2c(N)ncnc21` (configuration not stated), the Kd was > 4 mM (inactive).
In the case of `O=C(O)C1CC(C2CCCCN2)CN2CCCCC12` (configuration not stated), the Kd is reported as > 4 mM (inactive).
`COC(=O)C1[C@H]2C[C@H]3c4[nH]c5ccccc5c4CCN3C[C@@H]2CC[C@@H]1O` (some centres not stated) was tested, and the Kd was > 4 mM (inactive).
In the case of `Nc1c(Nc2ccccc2)c2ccccc2oc1=O`, the Kd is reported as > 4 mM (inactive).
In the case of `O=C1CSC(=O)N1CN1CCOCC1`, the Kd is reported as > 4 mM (inactive).
In the case of `Cc1cc(C(=O)c2c(C)nn(C)c2Cl)n(C)n1`, the Kd is reported as > 4 mM (inactive).
In the case of `Cn1c(=O)[nH]c(=O)c2c1ncn2CCN1CCCCC1`, the Kd is reported as > 4 mM (inactive).
`NC(=O)c1ccccc1NC(=O)C1CC1` was tested, and the Kd was > 4 mM (inactive).
With `Cn1nc(-c2ccccc2)cc1N` the Kd was > 4 mM (inactive).
In the case of `Cn1cc(C(=O)N/N=C/c2ccccc2)ccc1=O`, the Kd is reported as > 4 mM (inactive).
With `O=C1N=C(N2CCOCC2)S/C1=C\c1cccnc1` the Kd was > 4 mM (inactive).
For `COc1ccc(-c2nc(N)n(C(C)=O)n2)cc1`, the Kd was > 4 mM (inactive).
In the case of `Nc1cccc2nonc12`, the Kd is reported as > 4 mM (inactive).
With `COc1ccc2c(c1O)-c1c(OC)c(OC)cc3c1[C@H](C2)N(C)CC3` the Kd was > 4 mM (inactive).
For `CC(=O)Nc1ccc(NC(C)=O)cc1`, the Kd was > 4 mM (inactive).
In the case of `CC1=NN(C(N)=S)C(C)(C)C1`, the Kd is reported as > 4 mM (inactive).
In the case of `COc1ccc(C2NC(C(=O)O)CS2)cc1` (configuration not stated), the Kd is reported as > 4 mM (inactive).
In the case of `O=C(O)CN(CCCc1ccccc1)CC(=O)O`, the Kd is reported as > 4 mM (inactive).
In the case of `CC(=O)N1CCc2ccccc2C1CC(=O)O` (configuration not stated), the Kd is reported as > 4 mM (inactive).
For `COc1ccc2ccc(=O)oc2c1`, the Kd was > 4 mM (inactive).
`Cc1nc(SCC(=O)c2c[nH]c3ccccc23)n[nH]1` was tested, and the Kd was > 4 mM (inactive).
With `Cc1nc2nc(COc3ccccc3)nn2c(C)c1Cl` the Kd was > 4 mM (inactive).
`CC(=O)OC[C@@]1(O)C[C@@]23CCC4c5ccoc5CC[C@]4(C)C2CC[C@@H]1C3` (some centres not stated) was tested, and the Kd was > 4 mM (inactive).
In the case of `O=C(O)c1cccc(O)c1O`, the Kd is reported as > 4 mM (inactive).
`NCc1cccc(-n2cccc2)c1` was tested, and the Kd was > 4 mM (inactive).
With `CNC(=O)C1=NCCCc2cc(OC)c(OC)cc21` the Kd was > 4 mM (inactive).
With `COc1cc(/C=C/C(=O)O)cc(OC)c1OC` the Kd was > 4 mM (inactive).
`O=C(Nc1ccc(F)cc1F)c1ccco1` was tested, and the Kd was > 4 mM (inactive).
With `CC(C)=NNC(=O)C(=O)Nc1ccc(F)cc1` the Kd was > 4 mM (inactive).
`NC(=O)C1CCN(c2ncnc(N)c2[N+](=O)[O-])CC1` was tested, and the Kd was > 4 mM (inactive).
In the case of `C=C1C2=CC(=O)O[C@@H](c3ccoc3)[C@]2(C)CCC1[C@@]1(C)C=CC(=O)C(C)(C)[C@@H]1CC(=O)OC` (some centres not stated), the Kd is reported as > 4 mM (inactive).
In the case of `O=C(Nc1nncs1)c1c(F)cccc1F`, the Kd is reported as > 4 mM (inactive).
For `COc1cc2c(cc1OC)[C@@H]1C(=O)c3ccc4c(c3O[C@@H]1CO2)C=CC(C)(C)O4`, the Kd was > 4 mM (inactive).
`CC(C)=CCc1c2c(c3occ(-c4ccc(O)c(O)c4)c(=O)c3c1O)C=CC(C)(C)O2` was tested, and the Kd was > 4 mM (inactive).
`OCc1ccc(N2CCOCC2)nc1` was tested, and the Kd was > 4 mM (inactive).
For `COc1ccc(-c2c(O)c3c(OC)c4c(cc3oc2=O)OC(C)(C)CC4)cc1`, the Kd was > 4 mM (inactive).
For `Cc1csc(NC(=O)c2ccoc2C)n1`, the Kd was > 4 mM (inactive).
`COc1cccc(NC(=O)c2cnn(C)c2Cl)c1` was tested, and the Kd was > 4 mM (inactive).
For `O=C(Nc1ccccn1)C(=O)N1CCCC1`, the Kd was > 4 mM (inactive).
With `COc1ccc(-c2oc3c(CC=C(C)C)c(O[C@@H]4O[C@H](CO)[C@@H](O)[C@H](O)[C@H]4O)cc(O)c3c(=O)c2O[C@@H]2O[C@@H](C)[C@H](O)[C@@H](O)[C@H]2O)cc1` the Kd was > 4 mM (inactive).
`CC(=O)OC1CCC23C(=O)OC45CCC(C6=CC(=O)OC6)C4(C)CCC2C5CCC3(O)C1` (configuration not stated) was tested, and the Kd was > 4 mM (inactive).
In the case of `N=C1/C(=C\c2ccccc2)C(=O)N=C2SC=NN12`, the Kd is reported as > 4 mM (inactive).
For `O=S1(=O)NC(=NCc2ccco2)c2ccccc21`, the Kd was > 4 mM (inactive).
For `NC(=O)CSc1ccc(Br)cc1`, the Kd was > 4 mM (inactive).
With `CCOc1ccc(C)cc1S(=O)(=O)n1ccc(C)n1` the Kd was > 4 mM (inactive).
With `Nc1ccc(N2CCOCC2)cc1` the Kd was > 4 mM (inactive).
With `Cc1c(C(=O)O)cnn1-c1ccccc1` the Kd was > 4 mM (inactive).
With `N=Nc1c(O)[nH]c2ccccc12` the Kd was > 4 mM (inactive).
For `COc1ccc(N2C(=O)CCC2=O)c(OC)c1`, the Kd was > 4 mM (inactive).
With `O=C(O)c1onc2ccccc12` the Kd was > 4 mM (inactive).
For `CN1CCN(C2CCN(Cc3ccccc3)CC2)CC1`, the Kd was > 4 mM (inactive).
In the case of `Cc1cc(C)n(CCCC(=O)O)n1`, the Kd is reported as > 4 mM (inactive).
`Brc1cccc(-c2nnco2)c1` was tested, and the Kd was > 4 mM (inactive).
In the case of `Cc1cccc(-c2nnc(-c3ccc(N)cc3)o2)c1`, the Kd is reported as > 4 mM (inactive).
For `CN1CCN(CC(=O)Nc2ccccc2)CC1`, the Kd was > 4 mM (inactive).
With `O=C1Nc2ccccc2C1C1(O)C(=O)Nc2ccc(F)cc21` (configuration not stated) the Kd was > 4 mM (inactive).
With `CCN1CCC(NC2CCC(O)CC2)CC1` (configuration not stated) the Kd was > 4 mM (inactive).
With `O=C1CC2OCC=C3CN4CC[C@]56c7ccccc7N1C5[C@H]2[C@H]3CC46` (some centres not stated) the Kd was > 4 mM (inactive).
In the case of `COC(=O)C(O)c1ccccc1` (configuration not stated), the Kd is reported as > 4 mM (inactive).
`Cc1nnc2ccc(N3CCCC3)nn12` was tested, and the Kd was > 4 mM (inactive).
`CCN(CC)S(=O)(=O)c1cccc2nsnc12` was tested, and the Kd was > 4 mM (inactive).
`COn1c(=O)c(C)[n+]([O-])c2ccccc21` was tested, and the Kd was > 4 mM (inactive).
In the case of `O=c1c(O)cccc2cc(O)c(O)c(O)c12`, the Kd is reported as > 4 mM (inactive).
In the case of `Cc1ccc(CN2CCN(C(=O)C3CCC3)CC2)cc1`, the Kd is reported as > 4 mM (inactive).
For `CC(=O)c1c(C)nc2ccccc2c1N`, the Kd was > 4 mM (inactive).
In the case of `Oc1ccc(C2SCCS2)cc1`, the Kd is reported as > 4 mM (inactive).
In the case of `O=S1(=O)C=C(Nc2ccccc2)CC1`, the Kd is reported as > 4 mM (inactive).
In the case of `Cc1onc(-c2ccc(F)cc2)c1C(=O)O`, the Kd is reported as > 4 mM (inactive).
With `O=C(O)c1ccccc1C(=O)Nc1ccccc1` the Kd was > 4 mM (inactive).
With `O=C(O)c1ccc(-n2cccc2)cc1` the Kd was > 4 mM (inactive).
For `Cc1cc(C)c(C#N)c(N2CCCC2)n1`, the Kd was > 4 mM (inactive).
`Nc1cc(C(=O)N2CCCC2)cc(C(=O)N2CCCC2)c1` was tested, and the Kd was > 4 mM (inactive).
For `Fc1cccc(F)c1CN1CCN(c2ncccn2)CC1`, the Kd was > 4 mM (inactive).
In the case of `O=C(O)c1ccc(-n2cncn2)cc1`, the Kd is reported as > 4 mM (inactive).
In the case of `NCC1CN(Cc2ccccc2)CCO1` (configuration not stated), the Kd is reported as > 4 mM (inactive).
`CC(=O)O[C@]1(C)CC[C@@]23CC1C(C)(C)[C@@H]2CC[C@H]3C` was tested, and the Kd was > 4 mM (inactive).
`CCn1cnc2scc(-c3ccccc3)c2c1=O` was tested, and the Kd was > 4 mM (inactive).
With `Cn1cccc1C(=S)N1CCOCC1` the Kd was > 4 mM (inactive).
In the case of `O=c1[nH]cc(S(=O)(=O)Nc2ccccc2)c(=O)[nH]1`, the Kd is reported as > 4 mM (inactive).
`O=C(O[C@@H]1Cc2c(O)cc(O)cc2O[C@@H]1c1cc(=O)c(O)c2c(O)c(O)cc([C@H]3Oc4cc(O)cc(O)c4C[C@H]3O)c2c1)c1cc(O)c(O)c(O)c1` was tested, and the Kd was > 4 mM (inactive).
For `Cc1ccccc1C(=O)Nn1cnnc1`, the Kd was > 4 mM (inactive).
With `Cn1c(=O)c2c(ncn2CCN)n(C)c1=O` the Kd was > 4 mM (inactive).
`NCc1ccc(N2CCOCC2)cc1` was tested, and the Kd was > 4 mM (inactive).
For `NNc1ncnc2sccc12`, the Kd was > 4 mM (inactive).
For `CC(C)CCCC(C)C1CCC2C3=CC[C@H]4C[C@@H](O)CC[C@]4(C)C3CC[C@@]21C` (some centres not stated), the Kd was > 4 mM (inactive).
In the case of `O=C(Nc1ccon1)c1ccccc1Cl`, the Kd is reported as > 4 mM (inactive).
For `CN1CCC(N(C)Cc2cccnc2)CC1`, the Kd was > 4 mM (inactive).
With `CN(C)c1nc(N2CCOCC2)nc(N2CCOCC2)n1` the Kd was > 4 mM (inactive).
In the case of `Cc1ccc(N2CCN(C(=O)c3ccccc3)CC2)c(C)c1`, the Kd is reported as > 4 mM (inactive).
In the case of `CC(=O)Nc1nnc(-c2ccccc2S(C)(=O)=O)o1`, the Kd is reported as > 4 mM (inactive).
For `Cc1occc1C(=O)NC1CCN(C)CC1`, the Kd was > 4 mM (inactive).
With `Cc1nc2ccccc2c(=O)n1CCCn1ccnc1` the Kd was > 4 mM (inactive).
With `CC(C)(O)CC[C@@H](O)[C@](C)(O)C1CC[C@@]2(O)C3=CC(=O)C4C[C@@H](O)[C@@H](O)C[C@]4(C)C3CC[C@]12C` (some centres not stated) the Kd was > 4 mM (inactive).
For `N#Cc1cc(-c2ccccc2)oc1N`, the Kd was > 4 mM (inactive).
In the case of `S=C(NCc1ccco1)NN1CCOCC1`, the Kd is reported as > 4 mM (inactive).
`O=C(NN1C(=O)C2C3C=CC(C3)C2C1=O)C1CC=CCC1` (configuration not stated) was tested, and the Kd was > 4 mM (inactive).
For `Nc1ccccc1C(=O)N1CCOCC1`, the Kd was > 4 mM (inactive).
In the case of `C=CC(C)(O)CC/C=C(\C)CCC=C(C)C` (configuration not stated), the Kd is reported as > 4 mM (inactive).
With `CNC(=O)C(=O)Nc1ccc(C)c(C)c1` the Kd was > 4 mM (inactive).
